According to US20250152574A1 (BIOGEN MA INC., priority 2022, published 2025):

biological target: T1, EBP (Homo sapiens, UniProt Q15125); assay: EBP Functional Assay (EBP immunoaffinity LC-MS assay); type: biochemical; conditions: HEK293T cells as source of EBP enzyme; substrate zymosterol-d5, 37° C. for 4 h; percent conversion to dehydrolathosterol-d5 by LC-APCI MRM MS
T1 construct: HEK293T cells were utilized as the source of EBP enzyme; endogenous in cells; host or cells: HEK293T
In short: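 HEK293T cells served as EBP source; enzyme preincubated 30 min with inhibitor dilutions, then zymosterol-d5 substrate added and incubated 4 h at 37° C. Sterols extracted and quantified by LC-APCI MRM MS; percent conversion to […] fit to 4-parameter logistic for IC50. Tasin-1 reference inhibitor.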

T1 sequence (Q15125 whole entry): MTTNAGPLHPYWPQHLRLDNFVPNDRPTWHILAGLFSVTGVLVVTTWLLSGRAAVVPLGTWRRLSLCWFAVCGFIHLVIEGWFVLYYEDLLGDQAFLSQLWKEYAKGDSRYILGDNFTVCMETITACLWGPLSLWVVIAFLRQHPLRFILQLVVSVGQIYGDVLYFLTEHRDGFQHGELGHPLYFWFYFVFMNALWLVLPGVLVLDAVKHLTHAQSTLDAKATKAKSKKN

| IC50 [nM] | Structure (SMILES) |
| --- | --- |
| 250 to 1500 | COc1ccc(S(=O)(=O)N2CCC3(CC2)CC(N2CCOCC2)CO3)c(C)n1 (centres unmarked) [Example 20, 8-((6-Methoxy-2-methylpyridin-3-yl)sulfonyl)-3-morpholino-1-oxa-8-azaspiro[4.5]decane] |
| 250 to 1500 | Cc1nc(C(F)(F)F)ccc1S(=O)(=O)N1CCC2(CC1)CC(NC1CCOCC1)CO2 (centres unmarked) [Example 138, 8-((2-methyl-6-(trifluoromethyl)pyridin-3-yl)sulfonyl)-N-(tetrahydro-2H-pyran-4-yl)-1-oxa-8-azaspiro[4.5]decan-3-amine] |
| 250 to 1500 | Cn1nc2c(c1S(=O)(=O)N1CCC3(CCC(N4CCOCC4)C3)CC1)COCC2 (centres unmarked) [Example 24, 2-Methyl-3-((2-morpholino-8-azaspiro[4.5]decan-8-yl)sulfonyl)-2,4,6,7-tetrahydropyrano[4,3-c]pyrazole] |
| 250 to 1500 | COC1CN(C2COC3(CCN(S(=O)(=O)c4cnc(C5CC5)s4)CC3)C2)C1 (centres unmarked) [Example 55, 8-((2-Cyclopropylthiazol-5-yl)sulfonyl)-3-(3-methoxyazetidin-1-yl)-1-oxa-8-azaspiro[4.5]decane] |
| 250 to 1500 | [2H]C([2H])([2H])N(CCOC)C1COC2(CCN(S(=O)(=O)c3cc(C)cnc3OC)CC2)C1 (centres unmarked) [Example 66, 8-((2-Methoxy-5-methylpyridin-3-yl)sulfonyl)-N-(2-methoxyethyl)-N-(methyl-d3)-1-oxa-8-azaspiro[4.5]decan-3-amine] |
| 100 to 250 | O=S(=O)(c1ccc(OC(F)F)cc1)N1CCC2(CC[C@@H](N3C[C@@H]4C[C@H]3CO4)C2)CC1 (single isomer, unassigned) [Example 90a] |
| 250 to 1500 | Cc1nc(C(F)(F)F)ccc1S(=O)(=O)N1CCC2(CC1)CC(NC1CC3(COC3)C1)CO2 (centres unmarked) [Example 137, 8-((2-methyl-6-(trifluoromethyl)pyridin-3-yl)sulfonyl)-N-(2-oxaspiro[3.3]heptan-6-yl)-1-oxa-8-azaspiro[4.5]decan-3-amine] |
| < 100 | Cc1ccc(S(=O)(=O)N2CCC3(CC2)CC(NC2CCOCC2)CO3)c(Cl)c1 (centres unmarked) [Example 51, 8-((2-Chloro-4-methylphenyl)sulfonyl)-N-(tetrahydro-2H-pyran-4-yl)-1-oxa-8-azaspiro[4.5]decan-3-amine] |
